Patent US10722519B2, “Aerosol fluoroquinolone formulations for improved pharmacokinetics” (priority 2008, dated 2020)

Legend:
[1] = Standard kill-curve and in vitro hollow fiber assay; type: cell-based; conditions: high concentrations, 0.018-fold-[…] the MIC evaluated
Source text: Fluoroquinolone efficacy in humans, animals and in vitro models of infection is linked to AUC:MIC ratio and Cmax:MIC ratio.

[2] = Mouse lung homogenate pharmacokinetics; conditions: IP, 20 mg/kg normalized to 60 mg/kg
Method: Mice were sacrificed at 0.08, 0.16, 0.25, 0.5, 0.75, 1.0, 2.0, 3.0, and 4.0 h after dosing and their lungs collected. […] Analytical standards (0.05 to 100 mg/L) were prepared in fresh mouse lung homogenate collected from untreated animals. […] Aliquots of the supernatant (25 μl) were injected directly onto the HPLC using a temperature-controlled autoinjector set at 10° C. Standard curves were constructed of the peak area versus standard concentration, and the data were fit using weighted linear regression (Microsoft Excel, Seattle, Wash.). […] The lung pharmacokinetic parameters were determined using WinNonlin (Pharsight, Mountain View, Calif.).

[3] = Sprague-Dawley, rat, in vivo, 10 mg/kg
P. aeruginosa ATCC 27853 = experiment: Acute mouse lung infection model; conditions: mice, 2 doses over 24 h
Method: Aerosol Administration of antibiotics: Antibiotics were aerosolized using a microspray aerosol device (MicroSprayer Model IA-C, PennCentury, Philadelphia, Pa.) attached to a FMJ-250 High-Pressure Syringe (PennCentury, Philadelphia, Pa.). […] For administration, each mouse was anesthetized (5% isoflurane in oxygen running at 4 L/min) and positioned securely at a 45-50° angle by the upper teeth, the microspray aerosol tip was inserted to the bifurcation and a 50 μl volume was administered.
The bacterial suspensions were adjusted to approximately 1-6×10^5 CFU/ml by correlation of the absorbance at 600 nm with predetermined plate counts. […] On day 4, mice were infected by intratracheal (IT) instillation of 0.05 ml of inoculum using a curved oral gavage tip attached to a 1 ml syringe. […] Antibiotics were aerosolized using a microspray aerosol device. All infections and aerosol treatments were performed under isoflurane anesthesia (5% isoflurane in oxygen running at 4 L/min). An untreated group of mice (n=8) was sacrificed prior to the initiation of treatment to determine baseline bacterial counts. […] The lungs were removed aseptically and homogenized (Pro200 homogenizer, Pro Scientific, Monroe, Conn.) in 1 ml of sterile saline. Serial 10-fold dilutions of the homogenized lung were plated on Mueller-hinton agar (MHA), and colonies counted.
In addition, due to the need for anesthesia for treatment, the maximum number of daily doses was limited to two.

For `C[C@H]1COc2c(N3CCN(C)CC3)c(F)cc3c(=O)c(C(=O)O)cn1c23` [Levofloxacin, levofloxacin], the “time to reach maximum levels of killing” value [1] was 10 to 20 min, the “AUC (Normalized to 60 mg/kg)” value [2] was 12.3 mg·h/kg and the “Cmax (Normalized to 60 mg/kg)” value [2] was 18.6 mg/kg. For the same compound, the “F, % from Lung vs IV” value [3] was 97%, the “reductions in lung bacterial counts” value (P. aeruginosa ATCC 27853; systemic (IP) 32 mg/kg) was 0.65 log CFU and the “reductions in lung bacterial counts” value (P. aeruginosa ATCC 27853; systemic (IP) 62.5 mg/kg) was 2.7 log CFU.
